Measurements as given in patent US10968203B2, “Pyrimidinyl-pyridyloxy-naphthyl compounds and methods of treating IRE1-related diseases and disorders” (Genentech, Inc., priority 2017, dated 2021).
Counter-ions that a name gives are not always drawn.

What follows are molecules tested on XBP1s-luc 293 LUC (assay: cellular PD assay, XBP1s-LUC reporter (Example 903)). Conditions: Table 1; read-out: XBP1s-luc 293 LUC (IC50).
Assay type: cell-based
Procedure, shortened: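 Cellular IRE1α pathway activity was quantified from the luciferase signal of an XBP1-Luc reporter, where the luciferase fusion is in frame and expressed only from the spliced XBP1 transcript.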

`Cc1ccc2c(NC(=O)c3ccc4ccccc4c3)cccc2c1Oc1ncccc1-c1ccnc(N[C@H]2CCCNC2)n1` [Example 174, (S)—N-(6-Methyl-5-((3-(2-(piperidin-3-ylamino)pyrimidin-4-yl)pyridin-2-yl)oxy)naphthalen-1-yl)-2-naphthamide] and `Cc1ccc2c(NC(=O)C(C)C)cccc2c1Oc1ncccc1-c1ccnc(N[C@H]2CCCNC2)n1` [Example 263, (S)—N-(6-Methyl-5-((3-(2-(piperidin-3-ylamino)pyrimidin-4-yl)pyridin-2-yl)oxy)naphthalen-1-yl)isobutyramide hydrochloride] are within 1.5-fold of each other in IC50: 278 nM for the first, 362 nM for the second.

First: Cc1ccc2c(NCCc3cscn3)cccc2c1Oc1ncccc1-c1ccnc(N[C@H]2CCCNC2)n1 [Example 260, (S)-4-(2-((2-Methyl-5-((2-(thiazol-4-yl)ethyl)amino)naphthalen-1-yl)oxy)pyridin-3-yl)-N-(piperidin-3-yl)pyrimidin-2-amine]
Second: Cc1nc(CNc2cccc3c(Oc4ncccc4-c4ccnc(N[C@H]5CCCNC5)n4)c(C)ccc23)cs1 [Example 244, (S)-4-(2-((2-Methyl-5-(((2-methylthiazol-4-yl)methyl)amino)naphthalen-1-yl)oxy)pyridin-3-yl)-N-(piperidin-3-yl)pyrimidin-2-amine]
The IC50 of the first is 8.6-fold higher: 103 nM for the first, 12 nM for the second.

`Cc1ccc2c(NS(=O)(=O)CC3CCOCC3)cccc2c1Oc1ncccc1-c1ccnc(N[C@H]2CCCNC2)n1` [Example 133, (S)—N-(6-Methyl-5-((3-(2-(piperidin-3-ylamino)pyrimidin-4-yl)pyridin-2-yl)oxy)naphthalen-1-yl)-1-(tetrahydro-2H-pyran-4-yl)methanesulfonamide hydrochloride] and `Cc1ccc2c(NS(=O)(=O)N3CCC3)cccc2c1Oc1ncccc1-c1ccnc(N[C@H]2CCCNC2)n1` [Example 195, (S)—N-(6-Methyl-5-((3-(2-(piperidin-3-ylamino)pyrimidin-4-yl)pyridin-2-yl)oxy)naphthalen-1-yl)azetidine-1-sulfonamide] are within 1.5-fold of each other in IC50: 158 nM for the first, 202 nM for the second.

Compared with `Cc1ccc2c(NC(=O)C3CC34CCOC4)cccc2c1Oc1ncccc1-c1ccnc(N[C@H]2CCCNC2)n1` (mixture of isomers) [Example 289, N-(6-Methyl-5-((3-(2-(((S)-piperidin-3-yl)amino)pyrimidin-4-yl)pyridin-2-yl)oxy)naphthalen-1-yl)-5-oxaspiro[2.4]heptane-1-carboxamide], `Cc1ccc2c(NC(=O)[C@@H]3CC3(C)C)cccc2c1Oc1ncccc1-c1ccnc(N[C@H]2CCCNC2)n1` (single isomer, unassigned) [Example 287] is 11-fold lower in IC50: 431 nM for the first, 39.4 nM for the second. The second is the more potent here.

Compared with `CCCS(=O)(=O)Nc1cccc2c(Oc3ncccc3-c3ccnc(N[C@@H]4CNCC[C@H]4F)n3)c(C)ccc12` (single isomer, unassigned) [Example 206], `Cc1ccc2c(NS(=O)(=O)CCCF)cccc2c1Oc1ncccc1-c1ccnc(N[C@H]2CCCNC2)n1` [Example 118, (S)-3-Fluoro-N-(6-methyl-5-((3-(2-(piperidin-3-ylamino)pyrimidin-4-yl)pyridin-2-yl)oxy)naphthalen-1-yl)propane-1-sulfonamide hydrochloride] is 1.5-fold lower in IC50: 487 nM for the first, 323 nM for the second.

`Cc1ccc2c(NC(=O)CC3CC4CCC3C4)cccc2c1Oc1ncccc1-c1ccnc(N[C@H]2CCCNC2)n1` (stereo partly drawn) [Example 286, 2-(Bicyclo[2.2.1]heptan-2-yl)-N-(6-methyl-5-((3-(2-((S)-piperidin-3-ylamino)pyrimidin-4-yl)pyridin-2-yl)oxy)naphthalen-1-yl)acetamide] and `Cc1ccc2c(NC(=O)CC3CCCCC3)cccc2c1Oc1ncccc1-c1ccnc(N[C@H]2CCCNC2)n1` [Example 130, (S)-2-Cyclohexyl-N-(6-methyl-5-((3-(2-(piperidin-3-ylamino)pyrimidin-4-yl)pyridin-2-yl)oxy)naphthalen-1-yl)acetamide] are within 1.5-fold of each other in IC50: 174 nM for the first, 228 nM for the second.

`Cc1ccc2c(NC(=O)C3CC4(CCC4)C3)cccc2c1Oc1ncccc1-c1ccnc(N[C@H]2CCCNC2)n1` [Example 255, (S)—N-(6-Methyl-5-((3-(2-(piperidin-3-ylamino)pyrimidin-4-yl)pyridin-2-yl)oxy)naphthalen-1-yl)spiro[3.3]heptane-2-carboxamide] and `Cc1ccc2c(NC(=O)C3CCCC3)cccc2c1Oc1ncccc1-c1ccnc(N[C@H]2CCCNC2)n1` [Example 187, (S)—N-(6-Methyl-5-((3-(2-(piperidin-3-ylamino)pyrimidin-4-yl)pyridin-2-yl)oxy)naphthalen-1-yl)cyclopentanecarboxamide] are within 1.5-fold of each other in IC50: 182 nM for the first, 157 nM for the second.

Going from `Cc1nc(CNc2cccc3c(Oc4ncccc4-c4ccnc(N[C@@H]5CNC[C@H](C)C5)n4)c(C)ccc23)cs1` [Example 323, 4-(2-((2-Methyl-5-(((2-methylthiazol-4-yl)methyl)amino)naphthalen-1-yl)oxy)pyridin-3-yl)-N-((3S,5R)-5-methylpiperidin-3-yl)pyrimidin-2-amine] to `Cc1ccc2c(NCC(C)(C)O)cccc2c1Oc1ncccc1-c1ccnc(N[C@H]2CCCNC2)n1` [Example 306, (S)-2-Methyl-1-((6-methyl-5-((3-(2-(piperidin-3-ylamino)pyrimidin-4-yl)pyridin-2-yl)oxy)naphthalen-1-yl)amino)propan-2-ol], the IC50 rises from 88.9 nM to 240 nM (2.7-fold). The first is the more potent here.

Compared with `Cc1ccc2c(NC[C@H](O)C(F)(F)F)cccc2c1Oc1ncccc1-c1ccnc(N[C@H]2CCCNC2)n1` [Example 299], `Cc1ccc2c(NC(=O)C3(C(F)(F)F)CC3)cccc2c1Oc1ncccc1-c1ccnc(N[C@H]2CCCNC2)n1` [Example 220, (S)—N-(6-Methyl-5-(3-(2-(piperidin-3-ylamino)pyrimidin-4-yl)pyridin-2-yloxy)naphthalen-1-yl)-1-(trifluoromethyl)cyclopropanecarboxamide] is 36-fold higher in IC50: 8.58 nM for the first, 309 nM for the second.

First: Cc1ccc2c(NS(=O)(=O)C3CCCCC3)c(F)ccc2c1Oc1ncccc1-c1ccnc(N[C@H]2CCCNC2)n1 [Example 282, (S)—N-(2-Fluoro-6-methyl-5-((3-(2-(piperidin-3-ylamino)pyrimidin-4-yl)pyridin-2-yl)oxy)naphthalen-1-yl)cyclohexanesulfonamide]
Second: Cc1ccc2c(NC3CCCC[C@H]3O)cccc2c1Oc1ncccc1-c1ccnc(N[C@H]2CCCNC2)n1 (stereo partly drawn) [Example 384, trans-2-((6-Methyl-5-((3-(2-((S)-piperidin-3-ylamino)pyrimidin-4-yl)pyridin-2-yl)oxy)naphthalen-1-yl)amino)cyclohexanol]
The IC50 of the first is 5.9-fold lower: 24.8 nM for the first, 146 nM for the second. The first is the more potent here.

Compared with `Cc1ccc2c(NS(=O)(=O)CC(F)(F)F)c(F)ccc2c1Oc1ncccc1-c1ccnc(N[C@@H]2CNC[C@H](C)C2)n1` [Example 375, 2,2,2-Trifluoro-N-(2-fluoro-6-methyl-5-((3-(2-(((3S,5R)-5-methylpiperidin-3-yl)amino)pyrimidin-4-yl)pyridin-2-yl)oxy)naphthalen-1-yl)ethanesulfonamide], `CCC(C)C(=O)Nc1cccc2c(Oc3ncccc3-c3ccnc(N[C@H]4CCCNC4)n3)c(C)ccc12` (stereo partly drawn) [Example 182, 2-Methyl-N-(6-methyl-5-((3-(2-(((S)-piperidin-3-yl)amino)pyrimi-din-4-yl)pyridin-2-yl)oxy)naphthalen-1-yl)butanamide] is 12-fold higher in IC50: 13.2 nM for the first, 154 nM for the second.

Compared with `Cc1ccc2c(NC3CCCC3O)cccc2c1Oc1ncccc1-c1ccnc(N[C@H]2CCCNC2)n1` (mixture of isomers) [Example 383, anti-2-((6-Methyl-5-((3-(2-((S)-piperidin-3-ylamino)pyrimidin-4-yl)pyridin-2-yl)oxy)naphthalen-1-yl)amino)cyclopentanol], `Cc1ccc2c(NC(=O)[C@H]3CC3(F)F)cccc2c1Oc1ncccc1-c1ccnc(N[C@H]2CCCNC2)n1` (single isomer, unassigned) [Example 179] is 3-fold lower in IC50: 231 nM for the first, 76 nM for the second. The second is the more potent here.

`Cc1cc(NS(=O)(=O)Cc2ccccc2)c2ccccc2c1Oc1ncccc1-c1ccnc(N[C@H]2CC[C@H](N)CC2)n1` [Example 110, N-(4-((3-(2-(((1r,4r)-4-aminocyclohexyl)amino)pyrimidin-4-yl)pyridin-2-yl)oxy)-3-methylnaphthalen-1-yl)-1-phenylmethanesulfonamide hydrochloride] gave an IC50 of 119 nM.

Same assay, conditions: Table 2; read-out: XBP1s-luc 293 LUC (IC50)

Going from `Cc1ccc2c(NS(=O)(=O)Cc3ccc(C#N)cc3)c(F)ccc2c1Oc1ncccc1-c1ccnc(N[C@@H]2CNC[C@@H](F)C2)n1` (single isomer, unassigned) [Example 484, hydrochloride] to `Cc1ccc2c(NS(=O)(=O)CCC(C)(F)F)c(F)ccc2c1Oc1ncccc1-c1ccnc(N[C@H]2CNC[C@H](F)C2)n1` (single isomer, unassigned) [Example 497, hydrochloride], the IC50 rises from 5 nM to 5100 nM (1000-fold).

Going from `CCO[C@@H](CNc1cccc2c(Oc3ncccc3-c3ccnc(N[C@H]4CCCNC4)n3)c(C)ccc12)C(F)(F)F` [Example 445, 4-(2-((5-(((S)-2-Ethoxy-3,3,3-trifluoropropyl)amino)-2-methylnaphthalen-1-yl)oxy)pyridin-3-yl)-N—((S)-piperidin-3-yl)pyrimidin-2-amine hydrochloride] to `COCCCNc1cccc2c(Oc3ncccc3-c3ccnc(N[C@H]4CCCNC4)n3)c(C)ccc12` [Example 430, 4-[2-[[5-(3-Methoxypropylamino)-2-methyl-1-naphthyl]oxy]-3-pyridyl]-N-[(3S)-3-piperidyl]pyrimidin-2-amine hydrochloride], the IC50 rises from 78 nM to 275 nM (3.5-fold).

`Cc1ccc2c(NS(=O)(=O)C[C@@H]3CC34CC4)c(F)ccc2c1Oc1ncccc1-c1ccnc(N[C@H]2CCCNC2)n1` (single isomer, unassigned) [Example 473, hydrochloride] and `Cc1ccc2c(N[C@@H]3CCC[C@H]3O)cccc2c1Oc1ncccc1-c1ccnc(N[C@H]2CCCNC2)n1` (single isomer, unassigned) [Example 395, hydrochloride] are within 1.5-fold of each other in IC50: 76 nM for the first, 109 nM for the second.

With `Cc1cc(NS(=O)(=O)CCC(F)(F)F)c2ccccc2c1Oc1ncccc1-c1ccnc(N[C@H]2CCCNC2)n1` [Example 478, (S)-3,3,3-Trifluoro-N-(3-methyl-4-((3-(2-(piperidin-3-ylamino)pyrimidin-4-yl)pyridin-2-yl)oxy)naphthalen-1-yl)propane-1-sulfonamide] the IC50 was 118 nM.
